Source: patent US20200291444A1, “Macrocyclisation Tags” (Oxford University Innovation LTD, priority 2017, published 2020)
No end group written: not given here.

Experiments:
25mer substrate = tested on: T1, 25mer substrate
T1 sequence: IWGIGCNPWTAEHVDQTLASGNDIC

[1] = tested on: T2, 14mer truncated substrate
T2 sequence: IWGIGCNPWTAEHV

[2] = tested on: T3, 13mer truncated substrate
T3 sequence: IWGIGCNPWTAEH

PCY1 [3] = test: PCY1 macrocyclisation of hybrid precursor peptides containing non-amino acids (Maldi); type: biochemical, Saponaria vaccaria; settings: 16 h incubation with PCY1, Maldi spectrum
Method: All kinetic measurements (activity tests, progress curves and initial-rate experiments) were performed as discontinuous assays analyzing samples via LC/MS or MALDI (10-mer activity test). Reactions were performed in 20 mM Tris pH 8.5, 100 mM NaCl, 5 mM DTT (for progress curves 0.2 mg mL-1 BSA was included).17 Reactions were performed at 30° C. and at various time points 50 μL samples were quenched with 20 μL of 6% (v/v) TFA. Samples (50 μL) were loaded onto a ZORBAX SBC18, 5 μm, 9.4 mm×50 mm (Agilent) column connected to an Agilent LC-MS instrument (G6130B Single Quad, Agilent Technologies). Reactants were separated from products using a gradient from A (H2O with 0.1% formic acid) to 80% B (acetonitrile), at a rate of 1.5 mL/min for 8.75 min. For data analysis, ion count peaks and UV absorbance peaks were integrated using Agilent ChemStation software. For data analysis involving quantitative mass spec integration, calibration curves with macrocyclic peptide product were performed in triplicate in order to linearly correlate ion counts to cyclic product concentration. Data fitting and plotting was performed with Prism 6. […]

PCY1 [4] = test: Single injection kinetic ITC with PCY1; type: biochemical, Saponaria vaccaria; settings: 30° C.
Method: (§1) All PCY1 samples were buffer-exchanged or solubilized into buffer F and further diluted in the same batch of buffer F, in order to minimize buffer mismatches. ITC binding experiments were performed using a cell solution containing PCY1:S562A and a titrant solution with each peptide used. All peptides were used at 200 μM except for presegetalin A1-NH2 (700 μM). […] The measurements were performed at a stir speed of 750 rpm at 25° C. using a reference power of 10 μcal/s, except for A1-NH2 (5 μcal/s). A buffer titration control in which peptide was titrated into buffer was performed for each experiment. Data processing, fitting to a non-linear one-site binding model, and data plotting was performed using MicroCal PEAQ ITC analysis software (Malvern). […] The measurement was performed in buffer at 30° C., at 750 rpm using a reference power of 5 μcal/s.

PCY1:S562A = test: ITC equilibrium binding to PCY1:S562A; design: species or system Saponaria vaccaria; settings: ITC, 25° C.
Method: as §1, with “used.” for “used. All peptides were used at 200 μM except for presegetalin A1-NH2 (700 μM).”

PCY1 [5] = test: LC/MS steady-state kinetics of macrocyclisation by PCY1; type: biochemical, Saponaria vaccaria
Method: (§2) All kinetic measurements (activity tests, progress curves and initial-rate experiments) were performed as discontinuous assays analyzing samples via LC/MS or MALDI (10-mer activity test). Reactions were performed in 20 mM Tris pH 8.5, 100 mM NaCl, 5 mM DTT (for progress curves 0.2 mg mL-1 BSA was included).17 Reactions were performed at 30° C. and at various time points 50 μL samples were quenched with 20 μL of 6% (v/v) TFA. Samples (50 μL) were loaded onto a ZORBAX SBC18, 5 μm, 9.4 mm×50 mm (Agilent) column connected to an Agilent LC-MS instrument (G6130B Single Quad, Agilent Technologies). Reactants were separated from products using a gradient from A (H2O with 0.1% formic acid) to 80% B (acetonitrile), at a rate of 1.5 mL/min for 8.75 min. For data analysis, ion count peaks and UV absorbance peaks were integrated using Agilent ChemStation software. For data analysis involving quantitative mass spec integration, calibration curves with macrocyclic peptide product were performed in triplicate in order to linearly correlate ion counts to cyclic product concentration. Data fitting and plotting was performed with Prism 6.
(§3) PCY1 extracted from S. vaccaria seeds has been previously described to have a turnover number of ˜1 h^−1 for PresegA1.^17 The enzyme produced heterologously in E. coli was evaluated by LC/MS-based time course experiments macrocyclizing 200 μM of PresegA1, PresegB1 or PresegF1 with 3.6 μM PCY1. These substrates were chosen as they produce 6, 5 and 9 residue macrocycles, respectively, show variability in the length of the C-terminal tail sequence, and have a different C-terminal core residue (proline in PresegF1, alanine in the other two) (FIG. 1b). PresegB1 was completely macrocyclized in ˜30 min, PresegA1 in ˜50 min and PresegF1 in >3 h (FIG. 2a). We chose to investigate the slowest and fastest substrate by steady-state kinetics using an LC/MS assay and UV280 nm quantification. […] Under the ITC conditions, the measured kcat (0.14±0.01 s^−1) was a factor of three lower than the LC/MS derived values. […] Therefore, we resorted to an LC/MS assay followed by quantification using mass ion counts, relying on a calibration curve employing the macrocyclic peptide product as a standard (FIG. 2b).

PCY1 [6] = test: LC/MS time course of macrocyclisation by PCY1; type: biochemical, Saponaria vaccaria; settings: 200 μM substrate, 3.6 μM PCY1
Method: as §2
as §3, with “These substrates were chosen as they produce 6, 5 and 9 residue macrocycles, respectively, show variability in the length of the C-terminal tail sequence, and have a different C-terminal core residue (proline in PresegF1, alanine in the other two) (FIG. 1b). PresegB1 was completely macrocyclized in ˜30 min, PresegA1 in ˜50 min and PresegF1 in >3 h (FIG. 2a).” left out

GmPOPB_S577A [7] = target: T4, GmPOPB_S577A (Galerina marginata, UniProt H2E7Q8, S577A); test: ITC binding to inactive mutant GmPOPB_S577A
T4 construct: His-tag (TEV-cleavable) (cleaved yes); made in house; host or cells: E. coli BL21(DE3)
T4 sequence (H2E7Q8 1-730 S577A): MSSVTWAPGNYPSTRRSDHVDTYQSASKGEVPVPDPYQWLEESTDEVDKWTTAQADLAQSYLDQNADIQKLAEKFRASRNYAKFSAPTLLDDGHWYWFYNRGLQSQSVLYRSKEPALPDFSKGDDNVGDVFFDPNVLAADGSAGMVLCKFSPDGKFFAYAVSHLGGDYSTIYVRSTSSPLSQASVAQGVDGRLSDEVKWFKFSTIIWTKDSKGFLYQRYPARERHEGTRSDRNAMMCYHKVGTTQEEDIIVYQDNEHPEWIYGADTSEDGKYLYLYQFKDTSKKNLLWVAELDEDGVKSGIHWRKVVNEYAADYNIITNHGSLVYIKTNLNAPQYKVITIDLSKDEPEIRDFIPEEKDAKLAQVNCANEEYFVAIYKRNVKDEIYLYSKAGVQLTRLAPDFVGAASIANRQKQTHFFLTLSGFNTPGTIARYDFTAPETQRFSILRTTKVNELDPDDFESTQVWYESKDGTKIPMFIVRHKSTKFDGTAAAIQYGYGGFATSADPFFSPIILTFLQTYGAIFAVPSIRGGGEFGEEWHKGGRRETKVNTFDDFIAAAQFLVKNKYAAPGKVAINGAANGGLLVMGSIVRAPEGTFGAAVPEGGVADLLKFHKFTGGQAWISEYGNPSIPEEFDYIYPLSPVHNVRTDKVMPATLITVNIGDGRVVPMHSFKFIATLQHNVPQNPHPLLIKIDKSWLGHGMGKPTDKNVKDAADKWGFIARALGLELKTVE

GmPOPB_S577A [8] = target: T4, GmPOPB_S577A; settings: previously shown; cited from earlier work
PCY1 [9] = settings: PCY1 extracted from S. vaccaria seeds; cited from earlier work
[10] = target: T5, GmPOPB_S577A (Galerina marginata), H2E7Q8; test: ITC, peptide titrated into GmPOPB_S577A, 20 C
T5 chain: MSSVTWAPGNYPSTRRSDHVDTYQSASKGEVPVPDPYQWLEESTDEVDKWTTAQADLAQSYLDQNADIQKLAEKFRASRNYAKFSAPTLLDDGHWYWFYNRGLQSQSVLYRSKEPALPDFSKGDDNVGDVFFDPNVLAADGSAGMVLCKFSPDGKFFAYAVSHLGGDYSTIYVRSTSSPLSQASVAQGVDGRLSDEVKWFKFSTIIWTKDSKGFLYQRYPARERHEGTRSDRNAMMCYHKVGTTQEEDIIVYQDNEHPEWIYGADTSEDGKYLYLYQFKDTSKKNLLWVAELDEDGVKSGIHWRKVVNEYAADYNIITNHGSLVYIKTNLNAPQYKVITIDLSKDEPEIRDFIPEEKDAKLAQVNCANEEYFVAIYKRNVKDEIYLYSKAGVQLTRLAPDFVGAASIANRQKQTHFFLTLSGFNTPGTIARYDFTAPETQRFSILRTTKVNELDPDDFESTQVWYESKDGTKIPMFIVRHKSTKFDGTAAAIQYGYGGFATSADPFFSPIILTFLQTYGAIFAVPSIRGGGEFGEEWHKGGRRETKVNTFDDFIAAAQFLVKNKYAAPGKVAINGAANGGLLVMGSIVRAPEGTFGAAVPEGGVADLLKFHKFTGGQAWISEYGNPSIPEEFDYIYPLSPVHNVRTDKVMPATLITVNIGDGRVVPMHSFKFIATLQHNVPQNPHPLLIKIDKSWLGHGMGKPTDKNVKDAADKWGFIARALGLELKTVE

PresegB1 = test: Activity test of PCY1 variants with PresegB1 as substrate; type: biochemical, Saponaria vaccaria

## GmPOPB (Galerina marginata POPB), wild type
25mer substrate
  Km, Michaelis-Menten kinetics of macrocyclisation: the 25mer substrate (50 µM)
[1]
  Km, Michaelis-Menten kinetics of macrocyclisation: the 14mer possesses higher Km (380 µM)
[2]
  Km, Michaelis-Menten kinetics of macrocyclisation: the 13mer substrate has a Km (25 µM)

## VGAG-8Aoc-FPIQT-NH2
PCY1 [3]
  conversion overnight (in words): almost entirely converted

## FSA-8Aoc-SKPIQT-NH2
PCY1 [3]
  conversion rate overnight: around 50%

## PresegB1: native linear PCY1 substrate presegetalin B1; produces a 5 residue macrocycle (GVAWAFQAKDVENASAPV)
PCY1 [4]
  kcat (table head prints kout): 0.14 ± 0.01 s⁻¹
PCY1 [4]; read-out: Km (table head prints Kin)
  Km: 0.25 ± 0.01 µM
PCY1:S562A
  Kd: ~200 nM
PCY1 [5]; LC/MS (UV280 nm), 30° C.
  kcat (table head prints kout): 0.37 ± 0.02 s⁻¹
PCY1 [5]; LC/MS (UV280 nm), 30° C., read-out: Km (table head prints Kin)
  Km: 0.45 ± 0.17 µM
PCY1 [5]; steady state kinetics, FIG. 7
  processing by PCY1 (in words): rapidly processed
PCY1 [6]
  time until completely macrocyclized: ~30 min

## WTAEHVDQTLASGNDIC [17mer-recogSeq, reference compound]
GmPOPB_S577A [7]
  Kd: 430 ± 10 nM
GmPOPB_S577A [8]
  difference in ΔG between the 17mer recognition sequence and the 25mer peptide: 1.34 kcal/mol

## PresegA1: native linear PCY1 substrate presegetalin A1; produces a 6 residue macrocycle (GVPVWAFQAKDVENASAPV; PresegA1)
PCY1 [9]
  turnover number: ~1 h⁻¹
PCY1:S562A
  Kd: ~200 nM
PCY1 [6]
  time until completely macrocyclized: ~50 min

## MFDTNATRLPIWGIGCNPWTAEHVDQTLASGNDIC (modifications not checked) [35mer substrate (GmAMA1)]
[10]
  Kd: 120 nM

B1: S562A: PCY1 variant (protein)
chain: MATSGFSKPLHYPPVRRDETVVDDYFGVKVADPYRWLEDPNSEETKEFVDNQEKLANSVLEECELIDKFKQKIIDFVNFPRCGVPFRRANKYFHFYNSGLQAQNVFQMQDDLDGKPEVLYDPNLREGGRSGLSLYSVSEDAKYFAFGIHSGLTEWVTIKILKTEDRSYLPDTLEWVKFSPAIWTHDNKGFFYCPYPPLKEGEDHMTRSAVNQEARYHFLGTDQSEDILLWRDLENPAHHLKCQITDDGKYFLLYILDGCDDANKVYCLDLTKLPNGLESFRGREDSAPFMKLIDSFDASYTAIANDGSVFTFQTNKDAPRKKLVRVDLNNPSVWTDLVPESKKDLLESAHAVNENQLILRYLSDVKHVLEIRDLESGALQHRLPIDIGSVDGITARRRDSVVFFKFTSILTPGIVYQCDLKNDPTQLKIFRESVVPDFDRSEFEVKQVFVPSKDGTKIPIFIAARKGISLDGSHPCEMHGYGGFGINMMPTFSASRIVFLKHLGGVFCLANIRGGGEYGEEWHKAGFRDKKQNVFDDFISAAEYLISSGYTKARRVAIEGGANGGLLVAACINQRPDLFGCAEANCGVMDMLRFHKFTLGYLWTGDYGCSDKEEEFKWLIKYSPIHNVRRPWEQPGNEETQYPATMILTADHDDRVVPLHSFKLLATMQHVLCTSLEDSPQKNPIIARIQRKAAHYGRATMTQIAEVADRYGFMAKALEAPWID
PresegB1
  relative activity of PCY1 variant (in words): inactive
